How the values were obtained:
Format in all cases: cell-based, human
OCL = assay: PARP cleavage in osteoclasts (OCL), mono- and coculture
Procedure: Human MM cell lines used were as follows: NCI-H929, OPM-2, LP-1, RPMI-8226, U266 (DSMZ, Braunschweig, Germany). Cell lines were cultured in RPMI 1640 medium (Biochrom, Berlin, Germany) supplemented with 10% heat-inactivated fetal calf serum (FCS, Gibco, Karlsruhe, Germany), 1 mM sodium pyruvate and 100 units/ml penicillin and 100 μg/ml streptomycin (Gibco). Human osteoclasts were obtained as described in the reference of Zavrski I, Krebbel H, Wildemann B, et al. Proteasome inhibitors abrogate osteoclast differentiation and osteoclast function. Biochem Biophys Res Commun. 2005; 333:200-205. Briefly, peripheral blood mononuclear cells (PBMC) were isolated from whole blood of healthy volunteers, using a Ficoll-Hypaque density gradient. The adherent fraction of the isolated mononuclear cells was cultured for 21 days in MEM medium (Sigma-Aldrich Chemie, Taufkirchen, Germany) supplemented with 10% FCS, 100 U/ml penicillin, 100 μg/ml streptomycin, 50 ng/ml M-CSF, and 25 ng/ml RANKL (osteoclastogenic medium), before coculture experiments and treatment with the inventive compounds started. […]
Whole cell extracts were prepared and quantified as described in Jundt F, Anagnostopoulos I, Forster R, Mathas S, Stein H, Dorken B. Activated Notch1 signaling promotes tumor cell proliferation and survival in Hodgkin and anaplastic large cell lymphoma. […]

MM cells = assay: Cell cycle analysis (propidium iodide staining), MM cells; conditions: after 48 h and 72 h
Procedure: The compound according to example 1, hereinafter referred to as GSI15, (compound RH02015SC, Maybridge, Acros Organics, Geel, Belgium) was freshly dissolved as 26 mM stock solution in Dimethylsulfoxide (DMSO). Multiple myeloma therapeutics used were melphalan (marketed as Alkeran®, GlaxoSmithKline, Munich, Germany) and bortezomib (marketed as Velcade®, Janssen-Cilag, Neuss, Germany). Melphalan was freshly dissolved at 10 mg/ml in 0.9% NaCl-solution. Bortezomib was freshly dissolved at 100 ng/ml in 0.9% NaCl solution. Gamma Secretase Inhibitor (GSI) treatment for apoptosis assessment by AnnexinV/PI staining, cell cycle analysis and coculture experiments was performed in 6-well plates. GSI15 stock solution was added directly to the cell suspension. GSI treatment for assaying proliferation was performed in 96-well plates. […]
For cell cycle analysis 2×10^5 cells were spun down, medium was aspirated and cells washed with PBS. […] After 10 minutes incubation in the dark at room temperature, cells were analyzed by flow cytometry. The amount of apoptotic cells was determined by AnnexinV/propidium iodide staining using Human AnnexinV-FITC Kit (Bender Medsystems, Vienna, Austria), according to manufacturer's protocol. […] Cells were then spun down again, resuspended in binding buffer containing PI and analyzed by flow cytometry.

OPM-2 cells = assay: Apoptosis by AnnexinV-FITC/PI staining, OPM-2
Procedure: The compound according to example 1, hereinafter referred to as GSI15, (compound RH02015SC, Maybridge, Acros Organics, Geel, Belgium) was freshly dissolved as 26 mM stock solution in Dimethylsulfoxide (DMSO). Multiple myeloma therapeutics used were melphalan (marketed as Alkeran®, GlaxoSmithKline, Munich, Germany) and bortezomib (marketed as Velcade®, Janssen-Cilag, Neuss, Germany). Melphalan was freshly dissolved at 10 mg/ml in 0.9% NaCl-solution. Bortezomib was freshly dissolved at 100 ng/ml in 0.9% NaCl solution. Gamma Secretase Inhibitor (GSI) treatment for apoptosis assessment by AnnexinV/PI staining, cell cycle analysis and coculture experiments was performed in 6-well plates. GSI15 stock solution was added directly to the cell suspension. GSI treatment for assaying proliferation was performed in 96-well plates. 10,000 cells per well were seeded in 50 μl medium per well before 50 μl of a 2× solution of GSI15 prediluted in medium were added per well. Melphalan and bortezomib treatment as well as their combination with GSI15 for assaying apoptosis by AnnexinV/PI staining was done in 6-well plates. All inhibitors were added directly to the cells in 6-well plates.
For cell cycle analysis 2×10^5 cells were spun down, medium was aspirated and cells washed with PBS. Cells were then resuspended in 250 μl PBS. 1 ml ice-cold 70% ethanol was added, followed by overnight incubation at −20° C. Cells were spun down, the pellet washed with PBS and then resuspended in 200 μl PBS containing 0.15 mg/ml RNaseA and 30 μg/ml propidium iodide (PI). After 10 minutes incubation in the dark at room temperature, cells were analyzed by flow cytometry. The amount of apoptotic cells was determined by AnnexinV/propidium iodide staining using Human AnnexinV-FITC Kit (Bender Medsystems, Vienna, Austria), according to manufacturer's protocol. Briefly, 2×10^5 cells were spun down and washed with PBS, followed by 10 minutes incubation in binding buffer containing AnnexinV-FITC conjugate. Cells were then spun down again, resuspended in binding buffer containing PI and analyzed by flow cytometry.

CC(C)c1ccc(S(=O)(=O)Nc2cccnc2Oc2ccc(Cl)cc2)cc1 [Example 1, N-(2-(4-chlorophenoxy)pyridin-3-yl)-4-isopropylbenzenesulfonamide]
PARP cleavage (OCL; OCL alone): did not induce PARP cleavage
PARP cleavage (OCL; OCL cocultured with OPM-2 cells, high doses of GSI15): it was induced
distribution of G1-, S- and G2-phase (MM cells): remained unaltered
apoptosis induction (OPM-2 cells; OPM-2, 40 μM GSI15 alone, 24 h): did not induce apoptosis
AnnexinV-FITC/PI staining (OPM-2 cells; OPM-2, 48 h of treatment): decrease of OPM-2 cells negative for both Annexin V-FITC- and PI-staining
overall amount of apoptotic cells (OPM-2 cells; OPM-2 alone, 60 μM GSI15, 48 h): 29%

Source: patent publication US20110251220A1, “Pharmaceutical compositions comprising gamma secretase modulators” (priority 2008, published 2011)
